Measurements reported in patent US8563555B2, “Pharmaceutical compositions containing a crystalline form of posaconazole” (Sandoz AG, priority 2008, dated 2013).
Values after ≈ are worked out from the molar mass of the structure shown. Values joined by “and” are separate entries in the source; they are usually repeats but may differ in a detail not shown here. Equal entries are not always repeated.

Legend:
[1] = Equilibrium solubility method in water; assay type: physicochemical
Procedure: The solubility of form Y was determined by the equilibrium solubility method, which employed a saturated solution of form Y, obtained by stirring 250 mg form Y in 6 ml water over night. The sample was filtered through a 0.45 μm membrane filter and the concentration of form Y in the filtrate was measured using a Perkin Elmer Lambda 35 UV/VIS spectrophotometer (λ=260 nm).

[2] = Solid state stability of form Y (HPLC assay, polymorphic form); assay type: physicochemical
Procedure: HPLC assay was performed by applying the following conditions: • Column: ZORBAX XDB-C18 Rapid Resolution HT, 1.8 μm, 50×4.6 mm (Agilent Technologies) • Eluent A: Dilute 2 ml of acetic acid (99-100%) with water and fill up to 1000 ml with water. Adjust pH to 6.5 with 2.5% ammonia. • Eluent B: water/acetonitrile=50/50 (v/v) • Flow rate: 0.8 ml/min • Temperature: 40° C. • Detection: UV at 260 nm • Gradient:
The solid state stability of form Y was determined by storing approximately 1.0 g of the material in a glass bottle at a) 60° C./100% Relative Humidity (RH), open exposure, for 24 hours and b) at 140° C., closed, for 3 days.
The material was assayed by HPLC for final content and degradation products.

[3] = Moisture sorption isotherm; assay type: physicochemical; conditions: 0-95% RH, 25° C.
Procedure: The moisture sorption isotherm was recorded with a SPS-11 moisture sorption analyzer (MD Mess-technik, Ulm, D). The measurement cycle was started at 0% relative humidity (RH), increased in 10% steps up to 90% RH and in a 5% step up to 95% RH. The equilibrium condition for each step was set to a constant mass ±0.003% over 49 min. The temperature was 25±0.1° C.

[4] = Stability of an aqueous suspension of form Y; assay type: physicochemical; conditions: 120 mg in 3 ml water, room temperature, 4 days
Procedure: 120 mg form Y were suspended in 3 ml water and the suspension was stirred at room temperature.

[5] = Stability of form Y within a pharmaceutical formulation (XRPD); assay type: physicochemical; conditions: suspension stored at room temperature for 7 weeks
Procedure: 25 ml of a suspension containing form Y were prepared as follows:
40% of the final amount of Polysorbat 80 and 40% of the final amount of simethicon were mixed and dissolved and/or dispersed in about 12% of the final amount of purified water and homogenized with Ultra Turrax (30 seconds; 27,000 rpm). Subsequently, 1 g of form Y of posaconazole were suspended or dispersed in this mixture under homogenization by Ultra Turrax (27,000 rpm, 2 minutes). The remaining 60% of Polysorbat 80 and of simethicon and 32% of the final amount of the purified water were added and mixed followed by the addition of sodium benzoate, sodium citrate dehydrate and citric acid monohydrate. After further mixing, xanthan gum was added to the mixture under stirring, followed by a 30 minutes phase of hydratization without mixing. Subsequently, glycerol and liquid glucose and of the remaining portion of 56% of the final amount of purified water were added under mixing until a uniform suspension was obtained.
This suspension was stored at room temperature for 7 weeks. A sample of approximately 1 g of the suspension was dried under vacuum over night at room temperature. […]

[6] = Particle size distribution (Malvern, laser diffraction) in suspension; assay type: physicochemical; conditions: for Mean particle size (D4,3-value) / Median particle size (d (0.5)-value): non-micronized form, in suspension, after 5 min ultrasonic treatment
Procedure: Crystalline form Y in a non-micronized form as obtained by Example 1 was used to prepare 25 ml of a suspension as follows:
The suspension was prepared analogously to the method described in Example 6 up to and including the addition of glycerol and liquid glucose. Subsequently, titanium oxide was added under mixing with a suitable homogenizer, followed by the addition of the cherry flavour and of the remaining portion of 56% of the final amount of purified water under mixing until a uniform suspension was obtained.
25 ml of a similar suspension, but without cherry flavour and using 12.148 g of purified water, was prepared analoguously using non-micronized crystalline form I of posaconazole.
The particle size distribution (Malvern) was measured according to the USP <429> and EP 2.9.31. based on the diffraction of laser by particles using a Mastersizer 2000S liquid dispersion system. The particle size measurement was started after ultrasonic treatment of the sample for 5 min.

[7] = Specific surface measurement, BET method; assay type: physicochemical; conditions: for Specific Surface: nitrogen at 77° K, non-micronized
Procedure: Specific surface measurement was performed with the equipment NOVA 2000 as commercially available from Quantachrome Instruments using the BET method and Nitrogen as the absorbed gas at 77° K (i.e. −196.15° C.) as described e.g. by Medema J, Campagne A.: A Simple Method to Determine Cumulative Surface-Area Distributions of Porous Solids; Journal of Catalysis, Volume 8, Issue 2, pp. 120, 1967.

[8] = Dissolution from suspension, USP <711> apparatus II; assay type: physicochemical; conditions: suspension of Example 7, paddle 25 rpm, 0.3% SLS aqueous solution
Procedure: Non-micronized form Y and non-micronized form I were incorporated into formulations having compositions and being prepared according to Example 7.
Dissolution of Form Y and Form I from those formulations was tested according to USP 32 (2009) method <711> (USP apparatus II (Paddle); 25 rpm; dissolution medium: 0.3% SLS aqueous solution). Posaconzole concentrations were determined with an online photometer (UV absorption at 260 nm).

[9] = cited from earlier work
[10] = 60° C./100% RH, open exposure, 24 hours
[11] = listed as crystalline form Y of posaconazole

CC[C@@H]([C@H](C)O)n1ncn(-c2ccc(N3CCN(c4ccc(OC[C@@H]5CO[C@@](Cn6cncn6)(c6ccc(F)cc6F)C5)cc4)CC3)cc2)c1=O [Crystalline Form Y, posaconazole]
water solubility of form Y relative to form I (times higher) [1]: about two
solubility ([1]; thermodynamic from solid, saturated solution stirred over night, 0.45 μm filtrate, UV 260 nm): 1.5 µg/mL (≈ 2.14 µM)
HPLC assay (% initial) [2, 10]: 99.9%
degradation [2, 10]: No significant degradation observed
HPLC assay (% initial) ([2]; 140° C., closed, 3 days): 99.9%
degradation ([2]; 140° C., closed, 3 days): No significant degradation observed
polymorphic conversion ([2]; 24 hours at 100% RH, 60° C.): not converted into another polymorphic form
water uptake [3]: ≤ 0.4%
physicochemical properties of the solid after stirring in water [4]: the same as the physicochemical properties of form Y obtained in Example 1
polymorphic conversion in suspension (XRPD) [5]: no conversion to another polymorphic form had occurred
fold smaller mean particle size compared to non-micronized form I ([6]; non-micronized): about 4 fold
fold smaller median particle size compared to non-micronized form I ([6]; non-micronized): about 5 fold
Mean particle size (D4,3-value) [6]: 9.9 μm
Median particle size (d (0.5)-value) [6]: 6.0 μm
Mean particle size (D4,3-value) [6, 11]: about 10±2 μm
Median particle size (d (0.5)-value) [6, 11]: about 6±2 μm
fold larger specific area compared to crystalline form I [7]: about 2.4 fold
Specific Surface ([7]; listed as Crystalline Form Y of posaconazole): 3.6 m^2/g and 3.7 m^2/g
Specific Surface [7, 11]: about 4±1 m^2/g
dissolution compared to non-micronized form I [8]: clearly faster dissolution

CC[C@@H]([C@H](C)O)n1ncn(-c2ccc(N3CCN(c4ccc(OC[C@@H]5CO[C@@](Cn6cncn6)(c6ccc(F)cc6F)C5)cc4)CC3)cc2)c1=O [posaconazole, 2,5-anhydro-1,3,4-trideoxy-2-C-(2,4-difluorophenyl)-4-[[4-[4-[4-[1-[(1S,2S)-1-ethyl-2-hydroxypropyl]-1,5-dihydro-5-oxo-4H-1,2,4-triazol-4-yl]phenyl]-1-piperazinyl]phenoxy]methyl]-1-(1H-1,2,4-triazol-1-yl)-D-threopentitol]
log P [9]: > 3

CC[C@@H]([C@H](C)O)n1ncn(-c2ccc(N3CCN(c4ccc(OC[C@@H]5CO[C@@](Cn6cncn6)(c6ccc(F)cc6F)C5)cc4)CC3)cc2)c1=O [Crystalline Form I, posaconazole]
Mean particle size (D4,3-value) [6]: 35.1 μm
Median particle size (d (0.5)-value) [6]: 31.3 μm
Specific Surface ([7]; listed as Crystalline Form I of posaconazole): 1.5 m^2/g and 1.6 m^2/g
